# Reference: US11674962B2, “Therapeutic and diagnostic methods for cancer” (Genentech, Inc., priority 2017, dated 2023)
# What was measured:
# [1] = tested on: locally advanced or metastatic non-small cell lung cancer (NSCLC); test: OAK phase III clinical trial (NCT02008227): atezolizumab vs docetaxel, outcomes by bTMB score and PD-L1 IHC; type: in vivo, human; conditions: OAK
# Experimental: (§1) A blood-based assay was used to evaluate the association between clinical response to treatment with atezolizumab (MPDL3280A) and blood tumor mutational burden (bTMB) score in patients with non-small cell lung cancer (NSCLC) enrolled in two clinical trials, a phase II clinical trial, POPLAR (Clinical Trial ID No.: NCT01903993), and a phase III clinical trial, OAK (Clinical Trial ID No.: NCT02008227), in which atezolizumab was administered as a monotherapy.
# (§2) Pre-treatment blood samples from patients with NSCLC who were enrolled in the POPLAR and/or the OAK studies, in which atezolizumab was administered as a monotherapy, were evaluated for bTMB score and/or maximum somatic allele frequency (MSAF).
# The OAK (Clinical Trial ID No.: NCT02008227) patient population evaluated for bTMB score consisted of 583 patients. Patients were eligible for enrollment in the OAK study if they had locally advanced or metastatic (e.g., stage IIIB, stage IV, or recurrent) NSCLC; disease progression during or following treatment with a prior platinum-containing regimen for locally advanced, unresectable/inoperable, or metastatic NSCLC, or disease recurrence within 6 months of treatment with a platinum-based adjuvant/neoadjuvant regimen; measurable disease, as defined by RECIST v1.1; and an ECOG performance status of 0 or 1. Participants were randomized to receive either atezolizumab at a dose of 1200 mg intravenously every three weeks or docetaxel 75 mg per square meter (mg/m^2) intravenously every three weeks. Treatment with atezolizumab could be continued as long as participants were experiencing clinical benefit, i.e., in the absence of unacceptable toxicity or symptomatic deterioration attributed to disease progression.
# (§3) Analysis of bTMB was performed retrospectively. Progression-free survival (PFS) was defined as the time between date of randomization and date of first documented disease progression as assessed by the investigator using RECIST v.1.1 or death from any cause, whichever occurred first. Overall survival (OS) was defined as the time between the date of randomization until death due to any cause. Treatment arms were compared for OS and PFS individually using a univariate Cox regression model without stratification in the biomarker evaluable-population (BEP) and their subgroups or using a stratified (by randomization stratification factors) Cox model in the ITT population. No multiplicity correction was applied to p-values or confidence intervals (CI). Kaplan-Meier methodology was used to estimate median OS and PFS and construct survival curves.
# In the OAK ITT population (N=850), 797 samples were available for analysis. Of these samples, 13 were removed for sample contamination >1%; 42 were removed for median exon coverage <800×; and 100 were removed for low MSAF<1%.
# The OAK BEP (N=642) included 59 patients with EGFR mutation or ALK rearrangement, and 583 without known alterations.
# (§4) To identify somatic mutations and calculate a bTMB score, whole blood samples obtained from each patient (collected in EDTA or Streck tubes) were processed through a series of spins to isolate plasma, from which cell free DNA (cfDNA) was extracted for sequencing analysis. Specifically, at least 20 ng purified cfDNA was used for library construction. Next-generation sequencing libraries using fragment barcodes and hybrid capture were constructed to analyze and sequence a pre-determined set of 394 genes that covered approximately 1.125 Mb of the exome. Specifically, purified libraries were hybrid captured using a 394-gene bait set and then further purified, pooled and loaded on an ILLUMINA® HISEQ® 4000 sequencing system. Sequenced libraries were aligned and sorted. In order to accurately call variants at low allele frequencies and minimize artifacts from sequencing, PCR, or DNA damage-related errors, sequenced libraries were processed by a cfDNA computational pipeline that corrected errors via the use of fragment barcodes. […]
# [2] = tested on: locally advanced or metastatic non-small cell lung cancer (NSCLC); test: POPLAR phase II clinical trial (NCT01903993): atezolizumab vs docetaxel, outcomes by bTMB score; type: in vivo, human; conditions: bTMB≥16, per treatment arm
# Experimental: as §1, §2
# The POPLAR (Clinical Trial ID No.: NCT01903993) patient population evaluated for bTMB score consisted of 273 patients. Patients were eligible for enrollment in the POPLAR study if they had locally advanced or metastatic (e.g., stage IIIB, stage IV, or recurrent) non-small cell lung cancer (NSCLC); disease progression during or following treatment with a prior platinum-containing regimen for locally advanced, unresectable/inoperable, or metastatic NSCLC, or disease recurrence within 6 months of treatment with a platinum-based adjuvant/neoadjuvant regimen; measurable disease, as defined by RECIST v1.1; and an Eastern Cooperative Oncology Group (ECOG) performance status of 0 or 1. Participants were randomized to receive either atezolizumab at a dose of 1200 mg intravenously every three weeks or docetaxel 75 mg per meter square (mg/m^2) intravenously every three weeks. Treatment with atezolizumab could be continued as long as participants were experiencing clinical benefit, i.e., in the absence of unacceptable toxicity or symptomatic deterioration attributed to disease progression.
# as §3
# In the POPLAR ITT population (N=287), 273 samples were available for analysis. Of these, 6 were removed for sample contamination >1%; 9 were removed for median exon coverage <800×; and 47 were removed for low MSAF<1%.
# The POPLAR BEP (N=211) includes 15 patients with EGFR mutation or ALK rearrangement, and 196 without known alterations.
# as §4, with “sorted.” for “sorted. In order to accurately call variants at low allele frequencies and minimize artifacts from sequencing, PCR, or DNA damage-related errors, sequenced libraries were processed by a cfDNA computational pipeline that corrected errors via the use of fragment barcodes.”
structure (smiles),measurement,setting,value
CC(=O)O[C@@]12CO[C@@H]1C[C@H](O)[C@@]1(C)C(=O)[C@H](O)C3=C(C)[C@@H](OC(=O)[C@H](O)[C@@H](NC(=O)OC(C)(C)C)c4ccccc4)C[C@@](O)([C@@H](OC(=O)c4ccccc4)[C@H]21)C3(C)C [docetaxel],median OS,"[1]; bTMB≥16, per treatment arm",6.8 months
same,best overall response rate,"[1]; bTMB≥16 patients, per treatment arm",10%
same,median OS,[2],7.4 months
same,median PFS,[2],2.9 months
